Source: ChEMBL document CHEMBL5108051, “Improving the Antimicrobial Performance of Amphiphilic Cationic Antimicrobial Peptides Using Glutamic Acid Full-Scan and Positive Charge Compensation Strategies” (J Med Chem, 2022)
Values after ≈ are worked out from the molar mass of the structure shown. Active and inactive are the calls of the source. No cut-off for these calls is given here. Peptide text beside a SMILES is read from it.

Legend:
Escherichia coli [1] = test: Antibacterial activity against Escherichia coli ATCC 25922 assessed as growth inhibition measured after 18 to 24 hrs by CLSI based broth microdilution method; assay type: functional; conditions: time 18-24 hrs
Escherichia coli [2] = test: Antibacterial activity against Escherichia coli ATCC 25922 assessed as fold increase in MIC measured after 15 passages by resistance development assay relative to control; assay type: functional
Cell membrane [3] = test: Induction of cell membrane disruption in Staphylococcus aureus ATCC 25923 assessed as increase in PI uptake measured after 30 to 120 mins by propidium iodide staining based FACS flow cytometry analysis (reference value: 15%); assay type: subcellular; conditions: time 30-120 min
Bacillus subtilis = test: Antibacterial activity against Bacillus subtilis ATCC 23857 assessed as growth inhibition measured after 18 to 24 hrs by CLSI based broth microdilution method; assay type: functional; conditions: time 18-24 hrs
Cell membrane [4] = test: Induction of cell membrane disruption in Escherichia coli ATCC 25922 assessed as increase in PI uptake measured after 30 to 120 mins by propidium iodide staining based FACS flow cytometry analysis (reference value: 6.0 %); assay type: subcellular; conditions: time 30-120 min
Pseudomonas aeruginosa = test: Antibacterial activity against Pseudomonas aeruginosa ATCC 27853 assessed as growth inhibition measured after 18 to 24 hrs by CLSI based broth microdilution method; assay type: functional; conditions: time 18-24 hrs
[5] = Stability of compound in serum measured after 1 to 6 hrs by RP-HPLC analysis; assay type: ADME, cell-free; conditions: time 1-6 hrs
Klebsiella pneumoniae = test: Antibacterial activity against Klebsiella pneumoniae ATCC 700603 assessed as growth inhibition measured after 18 to 24 hrs by CLSI based broth microdilution method; assay type: functional; conditions: time 18-24 hrs
Staphylococcus aureus [6] = test: Antibacterial activity against Staphylococcus aureus ATCC 25923 assessed as fold increase in MIC measured after 15 passages by resistance development assay; assay type: functional
Staphylococcus aureus [7] = test: Antimicrobial activity against Staphylococcus aureus ATCC 25923 in presence of NaCl; assay type: functional, organism-based
Staphylococcus aureus [8] = test: Antibacterial activity against Staphylococcus aureus ATCC 25923 assessed as growth inhibition measured after 18 to 24 hrs by CLSI based broth microdilution method; assay type: functional; conditions: time 18-24 hrs
Staphylococcus aureus [9] = test: Antimicrobial activity against Staphylococcus aureus ATCC 25923 in presence of MgCl2; assay type: functional, organism-based
Staphylococcus aureus [10] = test: Antimicrobial activity against Staphylococcus aureus ATCC 25923 in presence of KCl; assay type: functional, organism-based
Staphylococcus aureus [11] = test: Antimicrobial activity against Staphylococcus aureus ATCC 25923 in presence of FeCl3; assay type: functional, organism-based
Staphylococcus aureus [12] = test: Antimicrobial activity against Staphylococcus aureus ATCC 25923 assessed as fold increase in MIC in presence of KCl; assay type: functional
Erythrocyte = test: Hemolytic activity against mouse RBC measured after 1 hrs; assay type: toxicity, cell-based
Escherichia coli [13] = test: Antimicrobial activity against Escherichia coli ATCC 25922 in presence of MgCl2; assay type: functional, organism-based
Escherichia coli [14] = test: Antimicrobial activity against Escherichia coli ATCC 25922 in presence of KCl; assay type: functional, organism-based
[15] = Cytotoxicity against human Glomerular mesenchymal cell assessed as reduction in cell viability at 0 to 128 uM incubated for 1 hr by Resazurin cell viability kit; assay type: toxicity, cell-based; conditions: glomerular mesenchymal cells, dose 0-128 µM
Staphylococcus aureus [16] = test: Antimicrobial activity against Staphylococcus aureus ATCC 25923 assessed as fold increase in MIC in presence of MgCl2; assay type: functional
Escherichia coli [17] = test: Antimicrobial activity against Escherichia coli ATCC 25922 in presence of NaCl; assay type: functional, organism-based
Staphylococcus aureus [18] = test: Antimicrobial activity against Staphylococcus aureus ATCC 25923 assessed as fold increase in MIC in presence of NaCl; assay type: functional
Staphylococcus aureus [19] = test: Antimicrobial activity against Staphylococcus aureus ATCC 25923 assessed as increase fold in increase MIC in presence of FeCl3; assay type: functional

For `CO[C@H]1/C=C/O[C@@]2(C)Oc3c(C)c(O)c4c(O)c(c(/C=N/N5CCN(C)CC5)c(O)c4c3C2=O)NC(=O)/C(C)=C\C=C\[C@H](C)[C@H](O)[C@@H](C)[C@@H](O)[C@@H](C)[C@H](OC(C)=O)[C@@H]1C` [RIFAMPIN], the MIC (Escherichia coli [1]) was 4 µM (≈ 3.29 µg/mL), the “fold change (FC)” value (Escherichia coli [2]) was 16 and the Activity (Cell membrane [3]) was 3.45%. The MIC (Bacillus subtilis) was less than 1 µM, the Activity (Cell membrane [4]) was 17.4% and the MIC (Pseudomonas aeruginosa) was 32 µM (≈ 26.3 µg/mL). The Stability [5] was “Stable”, the MIC (Klebsiella pneumoniae) was 32 µM (≈ 26.3 µg/mL) and the “fold change (FC)” value (Staphylococcus aureus [6]) was 4096. For the same compound, the Activity (Staphylococcus aureus [7]) was “Active”, the MIC (Staphylococcus aureus [8]) was less than 1 µM and the Activity (Staphylococcus aureus [9]) was “Active”. For the same compound, the Activity (Staphylococcus aureus [10]) was “Active” and the Activity (Staphylococcus aureus [11]) was “Active”.

With `CC(C)C[C@H](NC(=O)[C@H](CC(C)C)NC(=O)[C@H](CCCCN)NC(=O)[C@H](CCC(=O)O)NC(=O)[C@H](CC(C)C)NC(=O)[C@H](CC(C)C)NC(=O)[C@H](CCCCN)NC(=O)[C@H](C)NC(=O)[C@@H](NC(=O)[C@H](CCCCN)NC(=O)[C@@H]1CCCN1C(=O)[C@H](CC(C)C)NC(=O)[C@@H](N)Cc1ccccc1)C(C)C)C(N)=O` (H-FLPKVAKLLEKLL-NH2) the MIC (Escherichia coli [1]) was 8 µM (≈ 12.1 µg/mL), the “fold change (FC)” value (Staphylococcus aureus [12]) was 2 and the MHC10 (Erythrocyte) was greater than 256 µM. The MIC (Bacillus subtilis) was 8 µM (≈ 12.1 µg/mL), the Activity (Escherichia coli [13]) was “Active” and the Activity (Escherichia coli [14]) was “Active”. The MIC (Pseudomonas aeruginosa) was 16 µM (≈ 24.2 µg/mL), the MIC (Klebsiella pneumoniae) was 32 µM (≈ 48.4 µg/mL) and the MIC (Staphylococcus aureus [8]) was 8 µM (≈ 12.1 µg/mL). For the same compound, the CC50 at 1 h [15] was greater than 128 µM, the “fold change (FC)” value (Staphylococcus aureus [16]) was 2 and the Activity (Escherichia coli [17]) was “Active”. The “fold change (FC)” value (Staphylococcus aureus [18]) was 2 and the “fold change (FC)” value (Staphylococcus aureus [19]) was 2.

With `CC[C@H](C)[C@H](NC(=O)[C@@H]1CCCN1C(=O)[C@H](CC(C)C)NC(=O)[C@@H](N)Cc1ccccc1)C(=O)N[C@H](C(=O)N[C@@H](C)C(=O)N[C@@H](CCCCN)C(=O)N[C@@H](CC(C)C)C(=O)N[C@@H](CC(C)C)C(=O)N[C@@H](CO)C(=O)N[C@@H](CCC(=O)O)C(=O)N[C@@H](CC(C)C)C(=O)N[C@@H](CC(C)C)C(N)=O)C(C)C` (H-FLPIVAKLLSELL-NH2) the MIC (Escherichia coli [1]) was greater than 128 µM, the MHC10 (Erythrocyte) was 73.97 µM and the MIC (Bacillus subtilis) was 8 µM (≈ 11.6 µg/mL). The MIC (Pseudomonas aeruginosa) was greater than 128 µM, the MIC (Klebsiella pneumoniae) was greater than 128 µM and the MIC (Staphylococcus aureus [8]) was 16 µM (≈ 23.3 µg/mL).

For `CC[C@H](C)[C@H](NC(=O)[C@@H]1CCCN1C(=O)[C@H](CC(C)C)NC(=O)[C@@H](N)Cc1ccccc1)C(=O)N[C@H](C(=O)N[C@@H](C)C(=O)N[C@@H](CCCCN)C(=O)N[C@@H](CC(C)C)C(=O)N[C@@H](CC(C)C)C(=O)N[C@@H](CO)C(=O)NCC(=O)N[C@@H](CCC(=O)O)C(=O)N[C@@H](CC(C)C)C(N)=O)C(C)C` (H-FLPIVAKLLSGEL-NH2), the MIC (Escherichia coli [1]) was greater than 128 µM, the MHC10 (Erythrocyte) was greater than 256 µM and the MIC (Bacillus subtilis) was greater than 128 µM. For the same compound, the MIC (Pseudomonas aeruginosa) was greater than 128 µM, the MIC (Klebsiella pneumoniae) was greater than 128 µM and the MIC (Staphylococcus aureus [8]) was greater than 128 µM.

Work on GENTAMICIN yielded a fold change (FC) (Escherichia coli [2]) of 128 and a fold change (FC) (Staphylococcus aureus [6]) of 512.

In the case of `CC[C@H](C)[C@H](NC(=O)[C@@H]1CCCN1C(=O)[C@H](CC(C)C)NC(=O)[C@@H](N)Cc1ccccc1)C(=O)N[C@H](C(=O)N[C@@H](C)C(=O)N[C@@H](CCCCN)C(=O)N[C@@H](CC(C)C)C(=O)N[C@@H](CC(C)C)C(=O)N[C@@H](CCCCN)C(=O)NCC(=O)N[C@@H](CC(C)C)C(=O)N[C@@H](CC(C)C)C(N)=O)C(C)C` (H-FLPIVAKLLKGLL-NH2), the MIC (Escherichia coli [1]) is reported as greater than 128 µM, the MHC10 (Erythrocyte) is reported as 27.66 µM and the MIC (Bacillus subtilis) is reported as 4 µM (≈ 5.7 µg/mL). The MIC (Pseudomonas aeruginosa) was greater than 128 µM, the MIC (Klebsiella pneumoniae) was greater than 128 µM and the MIC (Staphylococcus aureus [8]) was 8 µM (≈ 11.4 µg/mL).

`CC(C)C[C@H](NC(=O)[C@H](CC(C)C)NC(=O)[C@H](CCC(=O)O)NC(=O)[C@H](CO)NC(=O)[C@H](CC(C)C)NC(=O)[C@H](CC(C)C)NC(=O)[C@H](CCCCN)NC(=O)[C@H](CCCCN)NC(=O)[C@@H](NC(=O)[C@H](CCCCN)NC(=O)[C@@H]1CCCN1C(=O)[C@H](CC(C)C)NC(=O)[C@@H](N)Cc1ccccc1)C(C)C)C(N)=O` (H-FLPKVKKLLSELL-NH2) gave an MIC (Escherichia coli [1]) of 32 µM (≈ 48.9 µg/mL), an MHC10 (Erythrocyte) greater than 256 µM and an MIC (Bacillus subtilis) of 16 µM (≈ 24.4 µg/mL). The MIC (Pseudomonas aeruginosa) was 32 µM (≈ 48.9 µg/mL), the MIC (Klebsiella pneumoniae) was 64 µM (≈ 97.7 µg/mL) and the MIC (Staphylococcus aureus [8]) was 64 µM (≈ 97.7 µg/mL).

Compound `CC[C@H](C)[C@H](NC(=O)[C@@H]1CCCN1C(=O)[C@H](CC(C)C)NC(=O)[C@@H](N)Cc1ccccc1)C(=O)N[C@@H](CCC(=O)O)C(=O)N[C@@H](C)C(=O)N[C@@H](CCCCN)C(=O)N[C@@H](CC(C)C)C(=O)N[C@@H](CC(C)C)C(=O)N[C@@H](CO)C(=O)NCC(=O)N[C@@H](CC(C)C)C(=O)N[C@@H](CC(C)C)C(N)=O` (H-FLPIEAKLLSGLL-NH2) has an MIC (Escherichia coli [1]) greater than 128 µM, an MHC10 (Erythrocyte) greater than 256 µM and an MIC (Bacillus subtilis) greater than 128 µM. For the same compound, the MIC (Pseudomonas aeruginosa) was greater than 128 µM, the MIC (Klebsiella pneumoniae) was greater than 128 µM and the MIC (Staphylococcus aureus [8]) was greater than 128 µM.

With `CC[C@H](C)[C@H](NC(=O)[C@@H]1CCCN1C(=O)[C@H](CC(C)C)NC(=O)[C@@H](N)Cc1ccccc1)C(=O)N[C@H](C(=O)N[C@@H](C)C(=O)N[C@@H](CCCCN)C(=O)N[C@@H](CC(C)C)C(=O)N[C@@H](CC(C)C)C(=O)N[C@@H](CO)C(=O)NCC(=O)N[C@@H](CC(C)C)C(=O)N[C@@H](CCC(=O)O)C(N)=O)C(C)C` (H-FLPIVAKLLSGLE-NH2) the MIC (Escherichia coli [1]) was greater than 128 µM, the MHC10 (Erythrocyte) was greater than 256 µM and the MIC (Bacillus subtilis) was greater than 128 µM. For the same compound, the MIC (Pseudomonas aeruginosa) was greater than 128 µM, the MIC (Klebsiella pneumoniae) was greater than 128 µM and the MIC (Staphylococcus aureus [8]) was greater than 128 µM.

In the case of `CC(C)C[C@H](NC(=O)[C@H](CC(C)C)NC(=O)[C@H](CCC(=O)O)NC(=O)[C@H](CCCCN)NC(=O)[C@H](CC(C)C)NC(=O)[C@H](CC(C)C)NC(=O)[C@H](CCCCN)NC(=O)[C@H](CCCCN)NC(=O)[C@@H](NC(=O)[C@H](CCCCN)NC(=O)[C@@H]1CCCN1C(=O)[C@H](CC(C)C)NC(=O)[C@@H](N)Cc1ccccc1)C(C)C)C(N)=O` (H-FLPKVKKLLKELL-NH2), the MIC (Escherichia coli [1]) is reported as 16 µM (≈ 25.1 µg/mL), the MHC10 (Erythrocyte) is reported as greater than 256 µM and the MIC (Bacillus subtilis) is reported as 8 µM (≈ 12.5 µg/mL). The MIC (Pseudomonas aeruginosa) was 16 µM (≈ 25.1 µg/mL), the MIC (Klebsiella pneumoniae) was 16 µM (≈ 25.1 µg/mL) and the MIC (Staphylococcus aureus [8]) was 32 µM (≈ 50.2 µg/mL).

`CC(C)C[C@H](NC(=O)[C@H](CC(C)C)NC(=O)CNC(=O)[C@H](CCC(=O)O)NC(=O)[C@H](CC(C)C)NC(=O)[C@H](CC(C)C)NC(=O)[C@H](CCCCN)NC(=O)[C@H](CCCCN)NC(=O)[C@@H](NC(=O)[C@H](CCCCN)NC(=O)[C@@H]1CCCN1C(=O)[C@H](CC(C)C)NC(=O)[C@@H](N)Cc1ccccc1)C(C)C)C(N)=O` (H-FLPKVKKLLEGLL-NH2) showed an MIC (Escherichia coli [1]) of 16 µM (≈ 24 µg/mL), an MHC10 (Erythrocyte) greater than 256 µM and an MIC (Bacillus subtilis) of 128 µM (≈ 192 µg/mL). It also gave an MIC (Pseudomonas aeruginosa) of 32 µM (≈ 47.9 µg/mL), an MIC (Klebsiella pneumoniae) of 64 µM (≈ 95.8 µg/mL) and an MIC (Staphylococcus aureus [8]) of 128 µM (≈ 192 µg/mL).
